Data reported in PMC10746280, “Bacterial efflux pump modulators prevent bacterial growth in macrophages and under broth conditions that mimic the host environment” (mBio, 2023).

Columns and labels:
[1] = tested on: S. Typhimurium; assay: Bacterial growth (OD600, CFU/mL) in LPM medium; format: cell-based
Text: (§1) LPM 5.5 is chemically defined, contains low phosphate and low magnesium, and is buffered to pH 5.5 ([34], [39][–][41]). […] It was further noted that mutant strains lacking acrAB or tolC grow poorly in LPM 5.5 compared to the corresponding wild type (Fig. 5C through F).
Fig 5 In LPM pH 5.5, acrAB and tolC are required for growth, and EPM analogs inhibit growth. (A and B) Optical density at 600 nm (OD600) and CFU per milliliter of S. Typhimurium in LPM 5.5 (at pH 5.5) or LPM 7 (at pH 7.0) in the presence of CU032. (C through F) OD600 in LPM 5.5 of (C and E) S. Typhimurium ΔacrAB mutant and wild-type strains, and (D and F) E. coli ΔtolC mutant and wild-type strains with (C, D) CU032 or (E and F) EPM35. Mean and SEM of three biological replicates are shown for A–F. The wild-type and mutant strain controls are the same for C and E and for D and F.
Bacteria were grown in LB at 37°C ([76], [77]), unless otherwise stated. Cation-adjusted MHB was purchased from Sigma-Aldrich (90922). LPM 5.5 medium was made according to the following recipe: 5 mM KCl, 7.5 mM (NH4)2SO4, 0.5 mM K2SO4, 10 mM glucose, 49 µM MgCl2, 337 µM PO4-, 0.05% casamino acids (CAS)-amino acids, 80 mM MES, adjusted to pH to 5.5 with 5 M NaOH, and sterile filtered. Where stated, bacteria were grown with antibiotics: 30 µg/mL streptomycin.

[2] = tested on: S. enterica (SL1344 and SA10801); assay: Growth/checkerboard in cation-adjusted Mueller Hinton Broth; format: cell-based; details: MHB
Procedure: as §1
Overnight cation-adjusted MHB-grown cultures of SL1344 or SA10801 were diluted in MHB or LPM 5.5 to an optical density at 600 nm (OD600) of 0.01 and distributed into polystyrene 96-well flat-bottom plates. EPM analogs were added at concentrations up to 300 µM, near the limit of solubility. The antibiotics ciprofloxacin, doxycycline, and erythromycin were added up to concentrations of 2 µM, 2 µM, and 8 µM, respectively. The final DMSO concentration was at or below 2% in all wells. Plates were grown at 37°C with shaking for 18 h and OD600 was monitored (BioTek Synergy H1, BioTek Eon). Each experiment was performed with biological triplicate or higher as indicated. Percent growth was determined by normalizing to OD600 reads in wells containing no D66 or antibiotic. Checkerboards in LPM 5.5 medium were performed with culture grown overnight in LB and diluted to an OD600 of 0.01 in LPM 5.5 and compounds/antibiotics were added as previously described. MuSyC analysis was pursued as previously described ([44], [45]). […]

[3] = molecular target: T1, E. coli AcrB (Escherichia coli, UniProt P31224); design: method as in PMID 29879224; details: ITC; previously reported; cited from earlier work
T1 construct: 4xHis (C); made in house; host or cells: E. coli BL21-Gold (DE3), plasmid derived from pSPORT1
T1 sequence (P31224 whole entry): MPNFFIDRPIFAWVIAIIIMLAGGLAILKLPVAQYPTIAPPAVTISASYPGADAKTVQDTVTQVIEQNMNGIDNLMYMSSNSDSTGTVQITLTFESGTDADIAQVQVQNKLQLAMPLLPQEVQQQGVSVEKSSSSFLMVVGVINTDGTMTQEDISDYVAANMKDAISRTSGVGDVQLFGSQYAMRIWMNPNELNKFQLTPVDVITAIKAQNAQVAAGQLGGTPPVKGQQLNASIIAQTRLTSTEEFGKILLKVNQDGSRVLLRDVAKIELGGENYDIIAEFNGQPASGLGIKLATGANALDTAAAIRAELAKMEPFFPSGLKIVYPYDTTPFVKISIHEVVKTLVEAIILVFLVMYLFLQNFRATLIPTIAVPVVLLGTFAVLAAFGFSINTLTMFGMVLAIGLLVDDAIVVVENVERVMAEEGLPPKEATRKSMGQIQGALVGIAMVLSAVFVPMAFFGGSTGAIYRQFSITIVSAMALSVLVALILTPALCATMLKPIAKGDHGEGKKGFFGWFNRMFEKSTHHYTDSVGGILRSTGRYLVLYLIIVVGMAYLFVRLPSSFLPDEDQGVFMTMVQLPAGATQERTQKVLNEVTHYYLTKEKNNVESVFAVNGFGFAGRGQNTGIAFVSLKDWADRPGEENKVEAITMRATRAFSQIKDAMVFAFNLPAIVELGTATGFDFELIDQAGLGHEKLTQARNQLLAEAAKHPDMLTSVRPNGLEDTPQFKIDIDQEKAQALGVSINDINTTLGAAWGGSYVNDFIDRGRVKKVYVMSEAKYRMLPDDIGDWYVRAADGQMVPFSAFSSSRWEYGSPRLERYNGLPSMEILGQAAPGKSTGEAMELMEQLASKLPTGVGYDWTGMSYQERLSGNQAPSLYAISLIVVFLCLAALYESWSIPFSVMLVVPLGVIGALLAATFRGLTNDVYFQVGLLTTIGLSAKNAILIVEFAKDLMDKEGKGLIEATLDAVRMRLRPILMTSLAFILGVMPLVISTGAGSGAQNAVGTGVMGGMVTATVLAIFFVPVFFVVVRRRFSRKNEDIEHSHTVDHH

NC1CCN(CC(O)COc2ccc(Cl)c(Cl)c2)C1 (stereo not shown) [CU032]
nature of inhibitory activity (CFU per milliliter) ([1]; LPM 5.5): bacteriostatic, not bactericidal | growth inhibition in LPM 5.5 ([1]; pH 5.5): prevented bacterial growth | growth inhibitory activity in LPM at pH 7.0 ([1]; pH 7.0): abolished | growth inhibition of wild-type bacteria in Mueller Hinton Broth [2]: did not inhibit the growth

OC(COc1ccc(Cl)c(Cl)c1)CN1CCC(Nc2nccc(C(F)(F)F)n2)CC1 (stereo not shown) [EPM35]
KD [3]: sub-micromolar range | ∆H [3]: −7,663 ± 84 cal/mol | ∆S [3]: 4.2 cal/(mol deg)
